Data taken from patent US9480674B2, “Method and composition for treating acne” (THESAN PHARMACEUTICALS, INC., priority 2012, dated 2016).
“Also recorded” adds a separate entry of the source. Read-outs that look alike come from different tables or passages of the source.

Experiments:
sebum = experiment: Sebosuppressive activity on human skin (sebumetric casual level, sebutape, clinical observation); type: in vivo, man; conditions: for Sebosuppressive activity in man (reduction in sebum): NSA-1, NSA-2, NSA-8, NSA-9 tested at 0.5%
Method: The sebum inhibition index is calculated by counting the number of mature and differentiated cells in relation to the total number of cells in the sebaceous glands. A decrease in mature and differentiated cells indicates blocking of sebogenesis. The effect on human skin is determined by sebumetric examination using what is known as the “casual level” (Dobrev (2007)).

[1] = system: CYP1A1 expression in sebaceous glands; experiment: Focal expression of AhR activation (CYP1A1 immunohistochemistry) in sebaceous gland cell types of topically treated mouse ears
Source text: The embodiment described here entails treating the ears of C57BL/6 mice via the topical route, following established protocols to determine dose-response and time-response relationships, with sebum reducing AhR pathway agonists previously characterized for their in vivo activation of the receptor, using, for example the EROD and CALUX methods which are widely used in this field (see Table 1).
Following topical treatment, the ears are sampled, and CYP1A1 expression is examined by immunohistochemical analysis using a specific antibody.
The study diagrammed in FIG. 1 and for which photomicrographs are provided in FIG. 2 entailed treating mice daily for one week with a topical AhR pathway agonist, with ears taken for examination at Day 7. Ears were recovered and fixed in formalin, paraffin embedded and then sections were prepared and positioned on slides for immunohistochemical staining. The specific antibody used in this instance was rabbit anti-rat CYP1A1 polyclonal antibody (Millipore AB1247). The AhR pathway agonists used in the example in FIG. 2 were as follows: • 1B) 6-formylindolo[3,2-b]carbozole (NSA4/FICZ); • 2B) 8,13-Dihydroindolo[2′,3′:3,4]pyrido[2,1-b]quinazolin-5(7H)-one (NSA1/rutecarpine); • 3B) 3-phenyl-1H-benzo[f]chromen-1-one (NSA2); • 4B)_2,3,7,8-tetrachlorodibenzo-p-dioxin (NSA3/TCDD).
In addition to the particular topography of the isthmus region, these cells are characterized by the expression of L-RIG1, a marker of isthmic multi-potent clonogenic cells (Jensen et al. (2009),).

[2] = system: FADS2, AWAT1, ELOVL3 mRNA; experiment: Real-Time QRT-PCR of mRNA of sebogenic enzymes in ears of mice treated for five weeks; type: in vivo, C57BL/6 mice; conditions: mouse ears, 0.5% in acetone (TCDD 0.0005%), vs vehicle
Source text: At the end of that time the animals were sacrificed and the ears removed for further analysis.

[3] = in vivo; cited from earlier work
sebaceous glands = experiment: Dose effect in mice: sebosuppressive effect and tolerability of topical treatment of the ears; type: in vivo
Method: For these dose-effects tests, C57BL/6 mice were treated for three to five weeks, five days per week on the ears and in three concentrations, namely 0.1, 0.5, and 1% of NSA-2. The sebosuppressive effect was analyzed at the third week although expression thereof starts after one week.
Drug tolerability, in the absence of MADISH-type cyst production, was assessed after five weeks' treatment.

AhR (CYP1A1 induction) = target: T1, AhR (CYP1A1 induction) (Homo sapiens, UniProt P35869); experiment: EROD (ethoxyresorufin-O-deethylase) assay, CYP1A1 induction as reporter of AhR activation in vitro; type: cell-based; conditions: at 10 μM
T1 construct: endogenous in cells
T1 sequence (P35869 11-848): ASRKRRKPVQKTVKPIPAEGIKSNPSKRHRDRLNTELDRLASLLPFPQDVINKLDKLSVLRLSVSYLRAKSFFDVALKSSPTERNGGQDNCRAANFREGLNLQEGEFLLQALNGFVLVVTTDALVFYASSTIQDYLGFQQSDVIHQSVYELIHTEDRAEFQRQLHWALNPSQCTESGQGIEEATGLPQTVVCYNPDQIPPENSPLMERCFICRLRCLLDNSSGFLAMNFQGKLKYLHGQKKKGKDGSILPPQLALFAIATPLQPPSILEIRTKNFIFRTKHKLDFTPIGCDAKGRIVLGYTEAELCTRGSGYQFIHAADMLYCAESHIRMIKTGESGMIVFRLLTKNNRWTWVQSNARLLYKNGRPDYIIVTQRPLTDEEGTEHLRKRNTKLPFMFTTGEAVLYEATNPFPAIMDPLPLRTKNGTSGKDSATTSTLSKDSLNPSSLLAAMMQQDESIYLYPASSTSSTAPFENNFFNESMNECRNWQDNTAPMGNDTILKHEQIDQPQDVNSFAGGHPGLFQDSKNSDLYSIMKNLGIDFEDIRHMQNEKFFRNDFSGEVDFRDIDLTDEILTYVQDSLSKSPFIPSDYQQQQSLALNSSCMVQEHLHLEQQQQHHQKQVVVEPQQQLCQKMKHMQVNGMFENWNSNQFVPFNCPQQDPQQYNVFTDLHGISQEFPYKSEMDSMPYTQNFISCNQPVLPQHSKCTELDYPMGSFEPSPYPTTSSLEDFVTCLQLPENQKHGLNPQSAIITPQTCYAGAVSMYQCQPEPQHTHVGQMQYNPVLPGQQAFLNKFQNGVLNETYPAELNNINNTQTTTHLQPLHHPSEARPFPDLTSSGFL
Source text: As used herein, the term EROD refers to the ethoxyreorufin-O-deethylase (EROD) assay which monitors the induction of the xenobiotic-metabolizing enzyme cytochrome P-450 1A1(CYP1A1) and is a widely used as a reporter for measuring activation of the AhR in vitro (Zamaratskaia et al. (2009), Behnisch et al. (2001),)

[4] = Blood assay by HPLC in topically treated mice; type: in vivo, C57BL/6 mice; conditions: 5 nM sensitivity
[5] = in rodents; Adedoyin et al. (1993); cited from earlier work

Row | Structure (SMILES) | Activation of the AhR pathway (CYP1A1 staining) in the sebaceous cell sub-populations, stage reached ([1]; mouse, in vivo) | Sebosuppressive activity in man (reduction in sebum) (sebum) | Inhibition of mRNA expression encoding the three sebogenic enzymes (FADS2, AWAT1, ELOVL3) [2] | other results
1 | COc1ccc2nc([S@@+]([O-])Cc3ncc(C)c(OC)c3C)[nH]c2c1 [NSA 7, (S)-5-methoxy-2-[(4-methoxy-3,5-dimethylpyridin-2-yl)methylsulfinyl]-3H-benzoimidazole] | only activates the AhR receptor pathways in Stage One of the cell sub-populations |  |  | Sebosuppressive activity in man (sebum; tested at 8%): no sebosuppressive activity in man
2 | O=c1c2ccccc2nc2n1CCc1c-2[nH]c2ccccc12 [NSA 1, 8,13-Dihydroindolo[2′,3′:3,4]pyrido[2,1-b]quinazolin-5(7H)-one] | activates the AhR pathway in two of the cell sub-populations in mice | potentially useful sebosuppressive activity in man when tested at the same concentrations (0.5%), although weaker than that of NSA-2 |  | 
3 | O=Cc1c2c(cc3c1=Nc1ccccc1-3)=Nc1ccccc1-2 [NSA 4, 6-formylindolo[3,2-b]carbazole] | limited distribution in the sebaceous glands when compared with NSA-2 |  |  | 
4 | Clc1cc2c(cc1Cl)Oc1cc(Cl)c(Cl)cc1O2 [NSA 3, 2,3,7,8-tetrachlorodibenzo-p-dioxin] |  | strongest sebosuppressive activity in man | degree of specific gene suppression seen with NSA-2 is equivalent to that seen with the structurally unrelated compound NSA-3 | half-life [3]: measureable in years; Activation of the AhR pathway (CYP1A1 staining) in the sebaceous cell sub-populations, stage reached ([1]; mice, topical, first week of treatment): activate the AhR pathway in the four cell sub-populations within a period of less than one week
5 | O=c1cc(-c2ccccc2)oc2c1ccc1ccccc12 [NSA-8, 2-phenyl-4H-benzo[h]chromen-4-one] |  | neither 2-phenyl-4H-benzo[h]chromen-4-one nor 2-phenyl-4H-chromen-4-one exhibited any reduction in sebum | slightly stimulating effect | 
6 | O=c1cc(-c2ccccc2)oc2ccc3ccccc3c12 [NSA 2, 3-phenyl-1H-benzo[f]chromen-1-one] | activate the AhR pathway in the four cell sub-populations within a period of less than one week | strongest sebosuppressive activity in man; also recorded: active in reducing sebum | major inhibition | Sebosuppressive effect in mice (active sebaceous glands, gland surface, ratios of sebocytes; FIGS. 5-8) (sebaceous glands; 0.1, 0.5 and 1%, ears, five days per week, analyzed at the third week): very marked effects; also recorded: a reduction in the differentiated compartment of the gland was observed; MADISH-type cystic lesions (sebaceous glands; after five weeks' treatment, any concentration tested): No cystic lesion were observed; Tolerability in mice (sebaceous glands; mouse, in vivo): good tolerability; AhR activation in the standard EROD assay, % of the level of induction seen with 0.01 μM TCDD (AhR (CYP1A1 induction)): 10-20%; Blood level by HPLC [4]: < 5 nM; half-life [5]: less than 45 mins
7 | O=c1cc(-c2ccccc2)oc2ccccc12 [NSA-9, 2-phenyl-4H-chromen-4-one] |  | neither 2-phenyl-4H-benzo[h]chromen-4-one nor 2-phenyl-4H-chromen-4-one exhibited any reduction in sebum | no significant effect | 
